Entries after “also recorded” stand apart in the source; their conditions may differ.
Key:
Assay type in all cases: in vivo
rice (DSR) [1] = assay: Seed treatment in rice (DSR): rice grain yield (Example 4)
corn seeds [2] = assay: Germination of flonicamid-treated corn seeds, line sowing (Example 2); conditions: for Average germination %: corn seed
Method: In this experiment the effect of flonicamid was tested on corn seeds. Treated and untreated seeds were sown to see the impact of flonicamid on the plant germination. Treatments are performed using FS formulation of example 1. A line sowing method was used to sow the seeds.

Thrips [3] = assay: Efficacy of seed treatment on thrips in direct sown rice (Example 4)
corn seeds [4] = assay: Phytotoxicity after seed treatment, corn; conditions: treatment of seeds
transplanted rice [5] = assay: Seed treatment in transplanted rice: plant height, PGE rating, tillers (Example 5)
corn seeds [6] = assay: Plant vigour visual rating of corn from treated seeds (Example 3); parameters: Average Plant Vigor visual rating: scale not given here
Method: In this experiment the effect was tested on corn seeds. Treated and untreated seeds were sown to see the impact of flonicamid on the plant vigour. A line sowing method was used to sow the seeds.

transplanted rice [7] = assay: Seed treatment in transplanted rice: germination and crop safety (Example 5)
rice (DSR) [8] = assay: Seed treatment in rice (DSR): plant height, PGE rating, tillers (Example 4)
Thrips [9] = assay: Efficacy of seed treatment on thrips in transplanted rice (Example 5)
rice (DSR) [10] = assay: Seed treatment in rice (DSR): germination and crop safety (Example 4)

With N#CCNC(=O)c1cnccc1C(F)(F)F [Flonicamid, N-cyanomethyl-4-trifluoromethylnicotinamide] the “Rice grain yield t/ha” value (rice (DSR) [1]; 5 ml/kg Seed) was 4.53 t/ha, the “Rice grain yield t/ha” value (rice (DSR) [1]; 10 ml/kg Seed) was 4.85 t/ha and the Average germination % (corn seeds [2]; 5 g/ml/kg Seed, 5DAS) was 77.5%. For the same compound, the Average germination % (corn seeds [2]; 5 g/ml/kg Seed, 10DAS) was 97.5%, the Average germination % (corn seeds [2]; 5 g/ml/kg Seed, 15DAS) was 97.5% and the Average germination % (corn seeds [2]; 10 g/ml/kg Seed, 5DAS) was 82.5%. For the same compound, the Average germination % (corn seeds [2]; 10 g/ml/kg Seed, 10DAS) was 98%, the Average germination % (corn seeds [2]; 10 g/ml/kg Seed, 15DAS) was 98% and the “germination of tested corn seeds (in words)” value (corn seeds [2]; corn, seed treatment vs untreated) was “significant improvement in germination; also recorded: Enhanced germination %”. For the same compound, the “No. of Thrips/Seedling” value (Thrips [3]; 5 ml/kg Seed, 15DAS) was 4.5 Thrips/Seedling, the “No. of Thrips/Seedling” value (Thrips [3]; 5 ml/kg Seed, 20DAS) was 8.3 Thrips/Seedling and the “No. of Thrips/Seedling” value (Thrips [3]; 5 ml/kg Seed, 25DAS) was 12.3 Thrips/Seedling. The “No. of Thrips/Seedling” value (Thrips [3]; 10 ml/kg Seed, 15DAS) was 1.3 Thrips/Seedling, the “No. of Thrips/Seedling” value (Thrips [3]; 10 ml/kg Seed, 20DAS) was 4.8 Thrips/Seedling and the “No. of Thrips/Seedling” value (Thrips [3]; 10 ml/kg Seed, 25DAS) was 7.2 Thrips/Seedling. The “control of thrips (in words)” value (Thrips [3]; seed treatment vs untreated) was “better control of thrips”, the phytotoxicity (corn seeds [4]) was “no phytotoxicity was observed” and the “Plant height (cm)” value (transplanted rice [5]; 5 ml/kg Seed, 15DAS) was 51.5 cm. The “Plant height (cm)” value (transplanted rice [5]; 5 ml/kg Seed, 20DAS) was 72.8 cm, the PGE rating (transplanted rice [5]; 5 ml/kg Seed, 30 DAS) was 2 and the No. of tiller/hill (transplanted rice [5]; 5 ml/kg Seed, 45DAS) was 20.8 tiller/hill. For the same compound, the PGE rating (transplanted rice [5]; 5 ml/kg Seed, 45DAS) was 2, the No. of tiller/hill (transplanted rice [5]; 5 ml/kg Seed, 60DAS) was 22.6 tiller/hill and the “Plant height (cm)” value (transplanted rice [5]; 10 ml/kg Seed, 15DAS) was 58.4 cm. The “Plant height (cm)” value (transplanted rice [5]; 10 ml/kg Seed, 20DAS) was 78.5 cm, the PGE rating (transplanted rice [5]; 10 ml/kg Seed, 30 DAS) was 1 and the No. of tiller/hill (transplanted rice [5]; 10 ml/kg Seed, 45DAS) was 25.6 tiller/hill. The PGE rating (transplanted rice [5]; 10 ml/kg Seed, 45DAS) was 1, the No. of tiller/hill (transplanted rice [5]; 10 ml/kg Seed, 60DAS) was 28.5 tiller/hill and the “Average Plant Vigor visual rating” value (corn seeds [6]; 5 g/ml/kg Seed, 10DAS) was 2. The “Average Plant Vigor visual rating” value (corn seeds [6]; 5 g/ml/kg Seed, 20DAS) was 1, the “Average Plant Vigor visual rating” value (corn seeds [6]; 5 g/ml/kg Seed, 30DAS) was 1 and the “Average Plant Vigor visual rating” value (corn seeds [6]; 5 g/ml/kg Seed, 40DAS) was 1. The “Average Plant Vigor visual rating” value (corn seeds [6]; 10 g/ml/kg Seed, 10DAS) was 2, the “Average Plant Vigor visual rating” value (corn seeds [6]; 10 g/ml/kg Seed, 20DAS) was 1 and the “Average Plant Vigor visual rating” value (corn seeds [6]; 10 g/ml/kg Seed, 30DAS) was 1. For the same compound, the “Average Plant Vigor visual rating” value (corn seeds [6]; 10 g/ml/kg Seed, 40DAS) was 1, the “growth versus untreated control (in words)” value (corn seeds [6]; 30 days after sowing) was “Excellent growth” and the “% Germination” value (transplanted rice [7]; 5 ml/kg Seed) was 86%. For the same compound, the “No. of germinated seed/sq · m” value (transplanted rice [7]; 5 ml/kg Seed, 5DAS) was 98 seed/sq · m, the “No. of germinated seed/sq · m” value (transplanted rice [7]; 5 ml/kg Seed, 10DAS) was 102 seed/sq · m and the “No. of germinated seed/sq · m” value (transplanted rice [7]; 5 ml/kg Seed, 15DAS) was 108 seed/sq · m. For the same compound, the “% Germination” value (transplanted rice [7]; 10 ml/kg Seed) was 98%, the “No. of germinated seed/sq · m” value (transplanted rice [7]; 10 ml/kg Seed, 5DAS) was 110 seed/sq · m and the “No. of germinated seed/sq · m” value (transplanted rice [7]; 10 ml/kg Seed, 10DAS) was 120 seed/sq · m. For the same compound, the “No. of germinated seed/sq · m” value (transplanted rice [7]; 10 ml/kg Seed, 15DAS) was 128 seed/sq · m, the PGE rating (rice (DSR) [8]; 5 ml/kg Seed, 15 DAS) was 2 and the “Plant hight (cm)” value (rice (DSR) [8]; 5 ml/kg Seed, 15 DAS) was 12.83 cm. The “Plant hight (cm)” value (rice (DSR) [8]; 5 ml/kg Seed, 20 DAS) was 22.45 cm, the PGE rating (rice (DSR) [8]; 5 ml/kg Seed, 30 DAS) was 2 and the No. of tiller/hill (rice (DSR) [8]; 5 ml/kg Seed, 45 DAS) was 13.5 tiller/hill. For the same compound, the PGE rating (rice (DSR) [8]; 5 ml/kg Seed, 45 DAS) was 3, the No. of tiller/hill (rice (DSR) [8]; 5 ml/kg Seed, 60 DAS) was 15.3 tiller/hill and the PGE rating (rice (DSR) [8]; 10 ml/kg Seed, 15 DAS) was 1. The “Plant hight (cm)” value (rice (DSR) [8]; 10 ml/kg Seed, 15 DAS) was 15.33 cm, the “Plant hight (cm)” value (rice (DSR) [8]; 10 ml/kg Seed, 20 DAS) was 26.66 cm and the PGE rating (rice (DSR) [8]; 10 ml/kg Seed, 30 DAS) was 1. The No. of tiller/hill (rice (DSR) [8]; 10 ml/kg Seed, 45 DAS) was 17.2 tiller/hill, the PGE rating (rice (DSR) [8]; 10 ml/kg Seed, 45 DAS) was 2 and the No. of tiller/hill (rice (DSR) [8]; 10 ml/kg Seed, 60 DAS) was 19.7 tiller/hill. For the same compound, the “crop vigour parameter (in words)” value (rice (DSR) [8]; seed treatment vs untreated) was “improvement in crop vigour parameter”, the “No. of Thrips/Seedling” value (Thrips [9]; 5 ml/kg Seed, 15DAS) was 2.5 Thrips /Seedling and the “No. of Thrips/Seedling” value (Thrips [9]; 5 ml/kg Seed, 20DAS) was 7.2 Thrips /Seedling. The “No. of Thrips/Seedling” value (Thrips [9]; 5 ml/kg Seed, 25DAS) was 11.5 Thrips /Seedling, the “No. of Thrips/Seedling” value (Thrips [9]; 10 ml/kg Seed, 15DAS) was 1.2 Thrips /Seedling and the “No. of Thrips/Seedling” value (Thrips [9]; 10 ml/kg Seed, 20DAS) was 5.6 Thrips /Seedling. For the same compound, the “No. of Thrips/Seedling” value (Thrips [9]; 10 ml/kg Seed, 25DAS) was 9.3 Thrips /Seedling, the “% Germination” value (rice (DSR) [10]; 5 ml/kg Seed) was 90% and the “No. of germinated seed/sq · m” value (rice (DSR) [10]; 5 ml/kg Seed, 5DAS) was 65.3 seed/sq · m. The “No. of germinated seed/sq · m” value (rice (DSR) [10]; 5 ml/kg Seed, 10DAS) was 69.6 seed/sq · m, the “No. of germinated seed/sq · m” value (rice (DSR) [10]; 5 ml/kg Seed, 15 DAS) was 70.6 seed/sq · m and the “% Germination” value (rice (DSR) [10]; 10 ml/kg Seed) was 98%. The “No. of germinated seed/sq · m” value (rice (DSR) [10]; 10 ml/kg Seed, 5DAS) was 70.6 seed/sq · m, the “No. of germinated seed/sq · m” value (rice (DSR) [10]; 10 ml/kg Seed, 10DAS) was 73.3 seed/sq · m and the “No. of germinated seed/sq · m” value (rice (DSR) [10]; 10 ml/kg Seed, 15 DAS) was 78.6 seed/sq · m. For the same compound, the “plant growth/germination (in words)” value (rice (DSR) [10]; seed treatment vs untreated) was “enhanced plant growth/germination”.
